Measured values taken from the NIST ThermoML archive (doi:10.1021/je500284p).

Settings: 101.33 kPa, Liquid

NC=O [formamide]
Settings | viscosity [mPa·s]
298.15 K | 3.23
303.15 K | 2.95
308.15 K | 2.67
313.15 K | 2.43
318.15 K | 2.2
323.15 K | 1.99
328.15 K | 1.82
333.15 K | 1.69
338.15 K | 1.58
343.15 K | 1.52
348.15 K | 1.49
